Entries after “also recorded” stand apart in the source; their conditions may differ.
How the values were obtained:
[1] = test system: delayed rectifier K^+ channel; assay: whole-cell patch clamp, delayed rectifier K^+ channel (steady-state outward K^+ current at +40 mV) in rat fungiform taste receptor cells; format: cell-based, rat (Sprague-Dawley); conditions: for effect on outward K^+ currents, specificity test: 10 μM, >10 min (maximal effect), significance by paired t test; for stimulation of taste receptor cells: summary statement
From the text: (§1) The effects of free fatty acids ("FFAs") on taste buds isolated from rat fungiform papillae were examined to determine if a chemosensory (i.e. non-textural) cue for fats is located in the mouth. The methods used to isolate TRCs were generally as described in Behe et al., "Membrane Currents in Taste Cells of the Rat Fungiform Papilla: Evidence for Two Types of Ca Currents and Inhibition of K Currents by Saccharin," Journal of General Physiology, Vol. 96, pp. 1061-1084 (1990); Doolin et al., "Distribution and Characterization of Functional Amiloride-sensitive Sodium Channels in Rat Tongue," Journal of General Physiology, Vol. 107. pp. 545-554 (1996); and Gilbertson et al., "Proton Currents Through Amiloride-sensitive Na^+ Channels in Isolated Hamster Taste Cells: Enhancement by Vasopressin and cAMP," Neuron, Vol. 10, pp. 931-942 (1993).
(§2) Individual fungiform taste buds were isolated from the tongues of 2- to 5-month-old male Sprague-Dawley rats (Harlan Sprague Dawley, Indianapolis,Ind.). Animals were housed individually in polycarbonate cages with food (Purina #5001, Purina Mills, St. Louis, Mo.) provided ad lib. The room containing the rats was maintained at 21-23° C. on a 0700-1900 h light-dark cycle. All animal care and experimental procedures were in accordance with National Institutes of Health guidelines, and were approved by the Institutional Animal Care and Use Committee of the Pennington Biomedical Research Center.
(§3) Tongues were removed from euthanized rats, and were immediately placed in ice-cold Tyrode's solution. To remove the lingual epithelium containing the taste buds from the underlying muscle layer, approximately 1.0 ml of Tyrode's solution containing 0.3 mg/ml collagenase A (Boehringer Mannheim Corp., Indianapolis, Ind.), 2.5 mg/ml dispase (grade II; Boehringer Mannheim) and 1.0 mg/ml trypsin inhibitor (type I-S; Sigma Chemical Co., St. Louis, Mo.) was injected below the epithelium. The injected tongue was placed in Ca--Mg free Tyrode's solution and bubbled with O2 for 33-35 min. The lingual epithelium was removed and pinned serosal side up, allowing access to the taste buds. Fungiform taste buds were removed individually by gentle suction with a large, firepolished pipette (~200 μm diameter), and were plated onto Cell-Tak™-coated microscope slides (Collaborative Biomedical Prod., Bedford, Mass.) fitted with an O-ring which served as a recording chamber. Once plated, cells were perfused continually with Tyrode's or various test solutions. Taste buds isolated in this manner were used for up to 6 hours without any noticeable morphological or physiological decrement.
(§4) All chemicals were obtained from Sigma Chemical Corporation (St. Louis, Mo.) unless otherwise indicated. Normal extracellular solution (Tyrode's) contained (in mM): NaCl, 140; KCl, 5; CaCl2, 1; MgCl2, 1; HEPES (N-[2-hydroxyethyl] piperazine-N'-[2-ethanesulfonic acid), 10; glucose, 10; and sodium pyruvate, 10. The pH was adjusted to 7.40 with NaOH. In Ca^2+ --Mg^2+ free Tyrode's solution, 2 mM BAPTA (1,2-bis(2-aminophenoxy) ethane-N,N,N',N'-tetraacetic acid) (Molecular Probes, Eugene, Oreg.) replaced CaCl2 and MgCl2. Other components were identical to Tyrode's solution. Intracellular (pipette) solution contained (in mM): KCl, 140; CaCl2, 1 [free Ca^2+ was ~10^-8 M]; MgCl2, 2; HEPES, 10; EGTA (ethylene glycol-bis(β-aminoethylether)-N,N,N',N'-tetraacetic acid), 11; and ATP, 3. The pH was adjusted to 7.20 with KOH.
(§5) Free fatty acids (FFAs) were stored below -20° C. until the day of use, when they were dissolved in warm ethanol and diluted to final working concentrations in Tyrode's solution. Final ethanol concentrations in Tyrode's were below 0.1%; the ethanol had no effect on ionic currents in any TRCs. All FFAs were applied by bath perfusion. In some experiments, FFA-containing solutions were bubbled continuously with nitrogen to retard oxygenation. […]

[2] = test system: outward K^+ currents in rat fungiform taste receptor cells; assay: whole-cell patch clamp, total outward voltage-activated currents in rat fungiform taste receptor cells; format: cell-based, rat (Sprague-Dawley)
From the text: as §1
Individual fungiform taste buds were isolated from the tongues of 2- to 5-month-old male Sprague-Dawley rats (Harlan Sprague Dawley, Indianapolis,Ind.). Animals were housed individually in polycarbonate cages with food (Purina #5001, Purina Mills, St. Louis, Mo.) provided ad lib. The room containing the rats was maintained at 21-23° C. on a 0700-1900 h light-dark cycle. […]

[3] = test system: delayed rectifying K^+ channels; assay: patch clamp, delayed rectifying K^+ channels of TRCs isolated from Osborne-Mendel rats; format: cell-based
From the text: (§6) To determine if there is a link between the sensitivity of TRCs to PUFAs and dietary fat preferences, the PUFA-sensitivities of TRCs using patch clamp techniques were compared on TRCs isolated from Osborne-Mendel ("O-M") rats and S5B/P1 rats, strains with different dietary preferences. O-M rats prefer fat over carbohydrate, while S5B/P1 rats prefer carbohydrate over fat. […] Rats whose TRCs were more sensitive to the fatty acids have a preference for a lower-fat diet; while rats whose TRCs are less sensitive to fatty acids seek diets that are higher in fat.

[4] = test system: delayed rectifying K^+ channels; assay: patch clamp, delayed rectifying K^+ channels of TRCs isolated from S5B/P1 rats; format: cell-based; conditions: for inhibition of the delayed rectifying K^+ channels, S5B/P1 rats: TRCs from S5B/P1 rats; for sensitivity of S5B/P1 TRCs to inhibition compared with O-M TRCs: 10 μM, versus TRCs from O-M rats
From the text: as §6

[5] = test system: rat fungiform taste receptor cells; assay: current clamp, stimulus-induced depolarization of rat fungiform taste receptor cells; format: cell-based, rat (Sprague-Dawley)
Experimental: Voltage-activated currents were recorded from individual taste receptor cells maintained in the taste bud using the whole-cell patch clamp configuration, as generally described in Hamill et al., "Improved Patch-clamp Techniques for High-resolution Current Recording from Cells and Cell-free Membrane Patches," Pflugers Arch., Vol. 391, pp. 85-100 (1981). Patch pipettes were made by pulling mlcrohematocrit tubes (Scientific Products, McGaw Park, Ill.) on a Flaming/Brown micropipette puller (model P-97; Sutter Instrument Co., Novato, Calif.), and subsequently firepolishing on a microforge (model MF-9; Narishige, Tokyo) to a resistance between 5 and 10 M.OMEGA. when filled with intracellular solution.
Since arachidonic acid and linoleic acid inhibit K^+ currents in TRCs and these channels play crucial roles in repolarizing the cells following activity, the presence of such FFAs should affect how these cells respond during stimulus-induced activity. This prediction was tested in cells in current clamp mode during perfusion of saline, both in the absence and presence of 10 μM linoleic acid. In response to current injection (+18 pA), TRCs typically fired 0-3 action potentials, followed by a sustained depolarization lasting as long as the stimulus was present. […] On average, the sustained depolarization during current injection (18 pA) in the rat fungiform taste receptor cells was 22.4±8.5 mV during perfusion of physiological saline (n=7 cells). Addition of 10 μM linoleic acid to the perfusate of the same cells increased the mean voltage response to 36.8±9.2 mV (n=7), an increase of 64%.

[6] = test system: inwardly rectifying K^+ channels (Kir); assay: whole-cell patch clamp, inwardly rectifying K^+ channels (Kir) at -130 mV in rat fungiform taste receptor cells; format: cell-based, rat (Sprague-Dawley); conditions: n=5 cells
From the text: as §1, §2, §3, §4, §5

O=S(=O)(c1cccc2cnccc12)N1CCNCC1 [HA-100, reference compound]
effect of PKC/PKA inhibitor on linoleic acid-induced inhibition of outward K^+ currents ([1]; 25 μM, intracellular, n=6 cells): did not prevent linoleic acid-induced inhibition of outward K^+ currents

CCCCC/C=C\C/C=C\C/C=C\C/C=C\CCCC(=O)OC [arachidonic acid methyl ester]
modulation of TRC K^+ currents by esterified fatty acid ([2]; arachidonic acid methyl ester: n=5 cells): ineffective

CCCCCCCC/C=C\CCCCCCCCCCCC(=O)O [erucic acid, reference compound]
effect on outward K^+ currents, specificity test [1]: did not have significant effects

Nc1nc2c(ncn2[C@@H]2O[C@H](COP(=O)(O)OP(O)(O)=S)[C@@H](O)[C@H]2O)c(=O)[nH]1 [guanosine 5'-O-(2-thiodiphosphate), reference compound]
effect of G protein inhibitor on FFA effects on outward currents ([1]; 0.5 mM in the patch pipette, n=5): did not inhibit the effects of FFA on outward currents

CCCCCCCCCCCC(=O)O [lauric acid, reference compound]
inhibition of the delayed rectifying K^+ channels, O-M rats [3]: ineffective
inhibition of the delayed rectifying K^+ channels, S5B/P1 rats [4]: ineffective

CCCCC/C=C\C/C=C\CCCCCCCC(=O)O [linoleic acid]
effect of intracellular application on outward K^+ currents ([1]; 10 μM in the pipette (intracellular) solution, up to 30 min or more): no effect
effect on outward K^+ currents, specificity test [1]: significantly reduced outward K^+ currents
effect on outward K^+ currents on subsequent extracellular addition ([1]; linoleic acid also in pipette, added extracellularly, n=11 cells): outward K^+ currents were inhibited
inhibition of outward K^+ currents in metyrapone-treated TRCs ([1]; metyrapone 1 mM, 15 min, n=6 cells): still inhibited by linoleic acid in a quantitatively similar fashion
stimulation of taste receptor cells [1]: stimulate taste receptor cells
relative potency among the FFAs tested ([1]; trend in effects on both types of K^+ currents): the most potent of the FFAs tested
effect on stimulus-induced depolarization (in words) ([5]; 10 μM linoleic acid): significantly enhanced stimulus-induced depolarization of TRCs; also recorded: increase in the magnitude of stimulus-induced depolarization of taste receptor cells; also recorded: prolonged "tail" potential following termination of the stimulus
sustained depolarization during current injection (mean voltage response) ([5]; 10 μM linoleic acid, 18 pA, n=7 cells, saline 22.4±8.5 mV): 36.8±9.2 mV
activation at 10 µM ([5]; Rattus norvegicus, 10 μM, 18 pA, n=7, read-out: increase of mean voltage response over saline): 64%
inhibition of the delayed rectifying K^+ channels, O-M rats [3]: inhibited the delayed rectifying K^+ channels in a concentration-dependent manner
sensitivity of S5B/P1 TRCs to inhibition compared with O-M TRCs [4]: significantly more sensitive to inhibition
inhibition of the delayed rectifying K^+ channels, S5B/P1 rats [4]: inhibited the delayed rectifying K^+ channels in a concentration-dependent manner

CCCCC/C=C/C/C=C/CCCCCCCC(=O)O [linolelaidic acid, reference compound]
effect on outward K^+ currents, specificity test [1]: did not significantly affect outward K^+ currents
effect on outward K^+ currents, specificity test ([1]; listed as linolelaidic): no effect on outward K^+ currents

CC/C=C/C/C=C/C/C=C/CCCCCCCC(=O)O [linolenelaidic acid, reference compound]
effect on outward K^+ currents, specificity test [1]: no effect on outward K^+ currents; also recorded: did not significantly affect outward K^+ currents

CC(C)(C(=O)c1cccnc1)c1cccnc1 [metyrapone]
inhibition at 1000 µM ([2]; Rattus norvegicus, 1 mM, n=6 cells, read-out: inhibition of the outward current by metyrapone alone): 23.8 ± 9.7%

CCCCCCCC/C=C\CCCCCCCCCCCCCC(=O)O [nervonic acid, reference compound]
effect on outward K^+ currents, specificity test [1]: did not have significant effects

CCCCCCCC/C=C\CCCCCCCC(=O)O [oleic acid, reference compound]
effect on outward K^+ currents, specificity test [1]: did not have significant effects
enhancement of Kir [6]: did not enhance Kir

CCCCCC/C=C\CCCCCCCC(=O)O [palmitoleic acid, reference compound]
effect on outward K^+ currents, specificity test [1]: did not have significant effects

linolenic acid
effect on outward K^+ currents, specificity test [1]: significantly reduced outward K^+ currents
stimulation of taste receptor cells [1]: stimulate taste receptor cells
inhibition of the delayed rectifying K^+ channels, O-M rats [3]: inhibited the delayed rectifying K^+ channels in a concentration-dependent manner
sensitivity of S5B/P1 TRCs to inhibition compared with O-M TRCs [4]: significantly more sensitive to inhibition
inhibition of the delayed rectifying K^+ channels, S5B/P1 rats [4]: inhibited the delayed rectifying K^+ channels in a concentration-dependent manner

Reference: patent US6166076A, “Taste enhancing food additives” (Board of Supervisors of Louisiana State University and …, priority 1997, dated 2000)
